One molecule from ChEMBL document CHEMBL1914354, “Design, synthesis and antiepileptic properties of novel 1-(substituted benzylidene)-3-(1-(morpholino/piperidino methyl)-2,3-dioxoindolin-5-yl)urea derivatives” (Eur J Med Chem, 2011) can be followed below.

Structures are written as SMILES. Active and inactive are the calls of the source. The rule behind the calls is not given here.

For data set [1], the system named is Mus musculus. The data set is described as follows: Antiepileptic activity in ip dosed Swiss albino mouse assessed as dose required to protect against maximum electric shock-induced seizure after 0.5 hrs. The data set is classed as functional. The settings on record: read-out: MED.
Data set [2] relates to Rattus norvegicus. In words: Antiepileptic activity in Wistar rat assessed as protection against maximum electric shock-induced seizure at 30 mg/kg, po after 0.25 hrs. Type of data set: functional.
The test system of data set [3] is Mus musculus. In words: Antiepileptic activity in ip dosed Swiss albino mouse assessed as dose required to protect against subcutaneous pentylenetetrazol-induced clonic seizures after 4 hrs. Type of data set: functional. The settings on record: read-out: MED.
Data set [4] has as its system Rattus norvegicus. In words: Antiepileptic activity in Wistar rat assessed as protection against maximum electric shock-induced seizure at 30 mg/kg, po after 2 hrs. The data set is classed as functional.
Data set [5] has as its system Rattus norvegicus. In words: Neurotoxicity in Wistar rat assessed as minimal motor impairment at 30 mg/kg, po by rotarod method. Conditions: in vivo. Details: dose 30 mg/kg, route oral. Type of data set: toxicity, organism-based.
Data set [6] concerns Rattus norvegicus. The data set is described as follows: Antiepileptic activity in Wistar rat assessed as protection against maximum electric shock-induced seizure at 30 mg/kg, po after 4 hrs. Type of data set: functional.
Data set [7] relates to Rattus norvegicus. The data set is described as follows: Antiepileptic activity in Wistar rat assessed as protection against maximum electric shock-induced seizure at 30 mg/kg, po after 0.5 hrs. Type of data set: functional.
Data set [8] concerns Mus musculus. The data set is described as follows: Neurotoxicity in ip dosed Swiss albino mouse assessed as dose required for minimal motor impairment after 4 hrs by rotarod test. The data set is classed as toxicity, organism-based. The settings on record: in vivo. For orientation: In the rotarod test animals must keep their balance on a rotating rod.
Data set [9] has as its system Rattus norvegicus. The data set is described as follows: Antiepileptic activity in Wistar rat assessed as protection against maximum electric shock-induced seizure at 30 mg/kg, po after 1 hr. The data set is classed as functional.
For data set [10], the system named is Mus musculus. In words: Antiepileptic activity in Swiss albino mouse assessed as protection against maximum electric shock-induced seizure at 300 mg/kg, ip after 4 hrs. The data set is classed as functional, organism-based. Details: dose 300 mg/kg.
Data set [11] deals with Mus musculus. The data set is described as follows: Antiepileptic activity in ip dosed Swiss albino mouse assessed as protection against subcutaneous pentylenetetrazol-induced clonic seizures at 30 to 100 mg/kg, ip after 0.5 hrs. Type of data set: functional. The settings on record: sc, dose mg/kg 30-100, read-out: MED.
The test system of data set [12] is Mus musculus. In words: Neurotoxicity in Swiss albino mouse assessed as minimal motor impairment at 300 mg/kg, ip after 0.5 hrs by rotarod test. Type of data set: toxicity, organism-based. Details: dose 300 mg/kg, route intraperitoneal. Conditions: in vivo.

Consider `O=C(/N=C/c1ccc(O)cc1)Nc1ccc2c(c1)C(=O)C(=O)N2CN1CCOCC1`, for which the minimal effective dose with Mus musculus [1] is 300 mg/kg; in the data set on Mus musculus [3], 300 mg/kg; with Mus musculus [11] it was 30 mg/kg. For the same molecule, the Activity is 0% in the data set on Rattus norvegicus [2]; 0% in the data set with Rattus norvegicus [4]; “Non-toxic” in the data set with Rattus norvegicus [5]; 50% with Rattus norvegicus [6]; 0% in the data set with Rattus norvegicus [7]; 0% in the data set with Rattus norvegicus [9]. Also, the Activity result with Mus musculus [12] is on record as “Non-toxic”. In addition, the MTC with Mus musculus [8] was found to be 300 mg/kg. In the data set with Mus musculus [10], the outcome was inactive.
